Data on 10 molecules can be found in ChEMBL document CHEMBL1201862, “PubChem BioAssay data set” (2004).

Among the test systems are UO-31; T47D; MDA-MB-435; NCI/ADR-RES; OVCAR-3; HOP-92; SF-268; Hs-578T; RPMI-8226; UACC-257; SW-620; RXF 393; CCRF-CEM; MDA-MB-231; OVCAR-8; HL-60; BT-549; COLO 205; SK-OV-3; A549.
Common to all, as to test: inhibition of tumour cell growth, NCI panel, 48 h

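Grown in 96-well plates, cells were treated for 48 hours with each compound at five concentrations. Insufficient inhibition: endpoint recorded as highest concentration tested. At the GI50, growth is halved.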 Calls of active or inactive are those of the source. Cut-off read from the data, not from the text of the source: active = GI50 up to about 1.1 µM and inactive = higher.

Regarding `CCOC(=O)NC(Nc1ccc(F)cc1)(C(=O)OCC)C(F)(F)F` (stereo not given), the GI50 in the experiment with UO-31 was 8.59 µM (inactive); in the experiment on T47D, 3.72 µM (inactive); in the experiment on MDA-MB-435, 0.268 µM (active); in the experiment with NCI/ADR-RES it was 12 µM (inactive); in the experiment on OVCAR-3, > 100 µM (inactive); with HOP-92, > 100 µM (inactive). Besides, the GI50 in the experiment with SF-268 is > 100 µM (inactive); with Hs-578T, > 100 µM (inactive); in the experiment with RPMI-8226 it was 2.65 µM (inactive); in the experiment with UACC-257, 3.47 µM (inactive); in the experiment on SW-620 it was 1.22 µM (inactive); in the experiment with RXF 393, > 100 µM (inactive). Also, the GI50 was 3.28 µM (inactive) in the experiment on CCRF-CEM; > 100 µM (inactive) with MDA-MB-231; 7.06 µM (inactive) in the experiment with OVCAR-8; 0.526 µM (active) with HL-60; > 100 µM (inactive) with BT-549; > 26 µM (inactive) in the experiment with COLO 205. Moreover, the GI50 in the experiment with SK-OV-3 is > 100 µM (inactive); in the experiment with A549, 10.5 µM (inactive).

`O=S(=O)(O)c1ccc2c(/N=N/c3ccc(/N=N/c4ccccc4)cc3)c(O)c(S(=O)(=O)O)cc2c1`: the GI50 in the experiment with UO-31, in the experiment with T47D, in the experiment with MDA-MB-435, in the experiment on NCI/ADR-RES, in the experiment on OVCAR-3 and in the experiment with HOP-92 was > 100 µM (inactive) each time. Also, the GI50 with SF-268, in the experiment on Hs-578T, in the experiment on RPMI-8226, with UACC-257, in the experiment on SW-620 and with RXF 393 was > 100 µM (inactive) throughout. The GI50 with CCRF-CEM, in the experiment with MDA-MB-231, in the experiment with OVCAR-8, in the experiment on HL-60, with BT-549 and with COLO 205 was > 100 µM (inactive) throughout. The GI50 in the experiment with SK-OV-3 and in the experiment on A549 was > 100 µM (inactive) each time.

In the case of `CCCCCCCCCCCCCCCCCCNC(=O)OCC(CNS(=O)(=O)CCC[n+]1cccc2ccccc21)COC` (stereo not given), the GI50 with UO-31 was 27.9 µM (inactive); in the experiment on T47D it was 3.88 µM (inactive); in the experiment on MDA-MB-435, 2.1 µM (inactive); in the experiment on NCI/ADR-RES, 18.5 µM (inactive); in the experiment on OVCAR-3, 3.99 µM (inactive); with HOP-92, 0.838 µM (active). The GI50 is 2.34 µM (inactive) with SF-268; 2 µM (inactive) in the experiment with Hs-578T; 1.37 µM (inactive) in the experiment on RPMI-8226; 2.8 µM (inactive) in the experiment with UACC-257; 2.16 µM (inactive) in the experiment with SW-620; 4.99 µM (inactive) in the experiment on RXF 393. The GI50 with CCRF-CEM is 1.06 µM (active); in the experiment with MDA-MB-231, 1.82 µM (inactive); in the experiment on OVCAR-8, 2.07 µM (inactive); in the experiment with HL-60 it was 1.23 µM (inactive); in the experiment on BT-549, 2.18 µM (inactive); with COLO 205 it was 0.435 µM (active). For the same molecule, the GI50 was 2.49 µM (inactive) in the experiment with SK-OV-3 and 1.47 µM (inactive) with A549.

Consider `c1c[nH]c(C23C4C5C6C4C2C6C53)n1` (stereo not given), for which the GI50 in the experiment with UO-31, in the experiment with T47D, in the experiment on MDA-MB-435, with NCI/ADR-RES, in the experiment on OVCAR-3 and with HOP-92 was > 100 µM (inactive) in each case. Besides, the GI50 with SF-268, with Hs-578T, in the experiment on RPMI-8226, in the experiment with UACC-257, with SW-620 and in the experiment with RXF 393 was > 100 µM (inactive) each time. Moreover, the GI50 in the experiment with CCRF-CEM, in the experiment with MDA-MB-231, with OVCAR-8, in the experiment on HL-60, with BT-549 and in the experiment on COLO 205 was > 100 µM (inactive) in each case. In addition, the GI50 in the experiment on SK-OV-3 and in the experiment with A549 was > 100 µM (inactive) throughout.

Consider `O=C1NCC2(CCN(Cc3ccccc3)CC2)N1`, for which the GI50 in the experiment with UO-31, in the experiment on T47D, in the experiment with MDA-MB-435, with NCI/ADR-RES, with OVCAR-3 and in the experiment with HOP-92 was > 100 µM (inactive) each time. Further, the GI50 with SF-268, with Hs-578T, with RPMI-8226, in the experiment on UACC-257, with SW-620 and in the experiment with RXF 393 was > 100 µM (inactive) throughout. For the same molecule, the GI50 in the experiment with CCRF-CEM, with MDA-MB-231, in the experiment on OVCAR-8, with HL-60, with BT-549 and in the experiment on COLO 205 was > 100 µM (inactive) in each case. Also, the GI50 in the experiment on SK-OV-3 and in the experiment with A549 was > 100 µM (inactive) throughout.

Turning to `N#Cc1ccc(NC(=O)C(CC(=O)OCc2ccccc2)NC(=O)OCc2ccccc2)cc1` (stereo not given), the GI50 in the experiment with UO-31, with T47D, in the experiment with MDA-MB-435, with NCI/ADR-RES, with OVCAR-3 and in the experiment with HOP-92 was > 10 µM (inactive) throughout. For the same molecule, the GI50 in the experiment on SF-268, in the experiment with Hs-578T, with RPMI-8226, in the experiment on UACC-257, in the experiment with SW-620 and in the experiment on RXF 393 was > 10 µM (inactive) throughout. Also, the GI50 in the experiment with CCRF-CEM, with MDA-MB-231, with OVCAR-8, in the experiment with HL-60, in the experiment on BT-549 and in the experiment with COLO 205 was > 10 µM (inactive) in each case. In addition, the GI50 in the experiment with SK-OV-3 and in the experiment with A549 was > 10 µM (inactive) throughout.

For the molecule `c1ccc(-c2cc(C3CO3)c3ccccc3n2)cc1` (stereo not given), the GI50 in the experiment with UO-31 is 1.52 µM (inactive); in the experiment on T47D, 18.9 µM (inactive); in the experiment on MDA-MB-435 it was 18.9 µM (inactive); with NCI/ADR-RES, 24.3 µM (inactive); in the experiment on OVCAR-3 it was 17.9 µM (inactive); in the experiment with HOP-92, 20 µM (inactive). Moreover, the GI50 in the experiment on SF-268 was 20 µM (inactive); in the experiment with Hs-578T, 29.3 µM (inactive); in the experiment with RPMI-8226, 21.9 µM (inactive); in the experiment on UACC-257 it was 19.1 µM (inactive); in the experiment with SW-620, 27.9 µM (inactive); in the experiment on RXF 393, 13.5 µM (inactive). Also, the GI50 was 29.6 µM (inactive) in the experiment with CCRF-CEM; 23.3 µM (inactive) in the experiment on MDA-MB-231; 20 µM (inactive) in the experiment on OVCAR-8; 26.9 µM (inactive) in the experiment with HL-60; 20.7 µM (inactive) in the experiment with BT-549; 19.7 µM (inactive) in the experiment on COLO 205. Further, the figures for the GI50 in the experiment on SK-OV-3 and in the experiment with A549 were 35 µM (inactive) and 20.1 µM (inactive), respectively.

`C=CC(c1ccccc1)[C@@]1(OC(C)=O)C(=O)C(=O)OC1C1COC(C)(C)O1` (stereo not given in full): the GI50 was 11.5 µM (inactive) with UO-31; 13.2 µM (inactive) in the experiment on T47D; 13.9 µM (inactive) in the experiment on MDA-MB-435; 15.5 µM (inactive) in the experiment on NCI/ADR-RES; 10.7 µM (inactive) in the experiment with OVCAR-3; 5.92 µM (inactive) in the experiment with HOP-92. Besides, the GI50 was 24.2 µM (inactive) with SF-268; 22.9 µM (inactive) in the experiment with Hs-578T; 5.79 µM (inactive) in the experiment with RPMI-8226; 9.71 µM (inactive) in the experiment on UACC-257; 8.13 µM (inactive) in the experiment on SW-620; 4.68 µM (inactive) with RXF 393. For the same molecule, the GI50 in the experiment on CCRF-CEM was 2.84 µM (inactive); in the experiment with MDA-MB-231 it was 14.4 µM (inactive); in the experiment with OVCAR-8 it was 13.1 µM (inactive); in the experiment on HL-60, 2.11 µM (inactive); in the experiment on BT-549, 12 µM (inactive); in the experiment with COLO 205, 8.26 µM (inactive). In addition, the GI50 in the experiment with SK-OV-3 is 18.1 µM (inactive); in the experiment with A549 it was 18 µM (inactive).

As for `COc1cc(/C=C/C=C2\CC/C(=C\C=C\c3ccc(O)c(OC)c3)C2=O)ccc1O`, the GI50 was > 82 µM (inactive) in the experiment with UO-31; > 100 µM (inactive) in the experiment with T47D; > 52.4 µM (inactive) in the experiment with MDA-MB-435; > 100 µM (inactive) in the experiment on NCI/ADR-RES; > 100 µM (inactive) with OVCAR-3; > 100 µM (inactive) with HOP-92. The GI50 in the experiment with SF-268 is > 100 µM (inactive); in the experiment on Hs-578T, > 100 µM (inactive); in the experiment with RPMI-8226 it was 57.3 µM (inactive); in the experiment with UACC-257 it was > 100 µM (inactive); with SW-620 it was > 100 µM (inactive); with RXF 393, 3.87 µM (inactive). Further, the GI50 with CCRF-CEM is 0.305 µM (active); with MDA-MB-231, > 59.7 µM (inactive); with OVCAR-8 it was > 100 µM (inactive); in the experiment with HL-60 it was 7.41 µM (inactive); with BT-549, > 100 µM (inactive); in the experiment on COLO 205 it was > 100 µM (inactive). Also, the GI50 in the experiment on SK-OV-3 is > 22.2 µM (inactive); in the experiment with A549 it was > 100 µM (inactive).

As for `CCOC(=O)CNC(=O)C(CSC(=O)N(O)c1ccc(Br)cc1)NC(=O)CCC(N)C(=O)OCC` (stereo not given), the GI50 with UO-31 is > 50 µM (inactive); in the experiment on T47D it was > 50 µM (inactive); with MDA-MB-435 it was 24.4 µM (inactive); in the experiment with NCI/ADR-RES it was > 50 µM (inactive); in the experiment with OVCAR-3, > 50 µM (inactive); with HOP-92, 8.45 µM (inactive). Moreover, the GI50 in the experiment with SF-268 is > 50 µM (inactive); in the experiment with Hs-578T it was > 50 µM (inactive); in the experiment with RPMI-8226, 21 µM (inactive); in the experiment with UACC-257, > 50 µM (inactive); with SW-620, 45.1 µM (inactive); in the experiment with RXF 393, > 50 µM (inactive). The GI50 is 27.4 µM (inactive) in the experiment with CCRF-CEM; > 50 µM (inactive) in the experiment on MDA-MB-231; > 50 µM (inactive) in the experiment on OVCAR-8; 0.005 µM (active) with HL-60; > 50 µM (inactive) in the experiment on BT-549; > 50 µM (inactive) with COLO 205. Besides, the GI50 with SK-OV-3 and with A549 was > 50 µM (inactive) each time.
